In patent US10100057B2, “Imidazopyrimidine and imidazotriazine derivative, and pharmaceutical composition comprising the same” (SK BIOPHARMACEUTICALS CO., LTD., priority 2016, dated 2018):
pEC50: −log10 of the molar value.

molecular target: human mGluR5 receptor (Homo sapiens (Human), UniProt P41594); assay: Calcium influx assay based on fluorescence (mGluR5 positive allosteric modulator activity); details: human mGluR5 receptor-overexpressed HEK293 cell line; L-glutamate EC20; Fluo-4, FLIPR; read-out: Human mGluR5 PAM EC50
Experimental: Efficacy as a positive allosteric modulator (PAM) of mGluR5 of the compounds of the Examples was tested as follows:
Calcium Influx Assay Based on Fluorescence
Ca^2+ (calcium) influx assay is an experiment for measuring the activity of a positive allosteric modulator of mGluR5 receptor in which human mGluR5 receptor-overexpressed HEK293 cell line is used. The day before the experiment, cells were prepared in a cell culture medium (DMEM, 5% FBS) with the density of 80,000/well, and 100 μl of cells were dispensed into each well of a poly-D-lysine-coated 96-well plate. Cells were incubated in a 5% CO2, 37° C. incubator. The next day, the cell culture medium was removed from the plate, and 100 μl of 1× Fluo-4 calcium indicator diluted with a buffer (1× Hank's balanced salt solution, 20 mM HEPES, 2.5 mM probenecid) were added to each well and incubated at 37° C. for 1 hour. The compound stock solutions were prepared in 100% DMSO, and the compounds were serially diluted with a 1/4 dilution to 6 or 7 concentrations (final concentration was 10 μM to 10 nM). The diluted compound solutions were added to the plate with 0.1 to 0.2% of final DMSO concentration. 1 hour after the addition of Fluo-4 calcium indicator, L-glutamate (EC20 concentration) and the test compound solutions were added to the plate, and Ca^2+ reaction was then measured by FLIPR at room temperature. The activity of the compounds was standardized on the basis of the results of maximum value-minimum value of fluorescent reaction, and the activity value was calculated on the basis that no activity on glutamate EC20 is 0% and the reaction to glutamate maximum value is 100%.

human mGluR5 receptor, sequence (P41594 21-1212): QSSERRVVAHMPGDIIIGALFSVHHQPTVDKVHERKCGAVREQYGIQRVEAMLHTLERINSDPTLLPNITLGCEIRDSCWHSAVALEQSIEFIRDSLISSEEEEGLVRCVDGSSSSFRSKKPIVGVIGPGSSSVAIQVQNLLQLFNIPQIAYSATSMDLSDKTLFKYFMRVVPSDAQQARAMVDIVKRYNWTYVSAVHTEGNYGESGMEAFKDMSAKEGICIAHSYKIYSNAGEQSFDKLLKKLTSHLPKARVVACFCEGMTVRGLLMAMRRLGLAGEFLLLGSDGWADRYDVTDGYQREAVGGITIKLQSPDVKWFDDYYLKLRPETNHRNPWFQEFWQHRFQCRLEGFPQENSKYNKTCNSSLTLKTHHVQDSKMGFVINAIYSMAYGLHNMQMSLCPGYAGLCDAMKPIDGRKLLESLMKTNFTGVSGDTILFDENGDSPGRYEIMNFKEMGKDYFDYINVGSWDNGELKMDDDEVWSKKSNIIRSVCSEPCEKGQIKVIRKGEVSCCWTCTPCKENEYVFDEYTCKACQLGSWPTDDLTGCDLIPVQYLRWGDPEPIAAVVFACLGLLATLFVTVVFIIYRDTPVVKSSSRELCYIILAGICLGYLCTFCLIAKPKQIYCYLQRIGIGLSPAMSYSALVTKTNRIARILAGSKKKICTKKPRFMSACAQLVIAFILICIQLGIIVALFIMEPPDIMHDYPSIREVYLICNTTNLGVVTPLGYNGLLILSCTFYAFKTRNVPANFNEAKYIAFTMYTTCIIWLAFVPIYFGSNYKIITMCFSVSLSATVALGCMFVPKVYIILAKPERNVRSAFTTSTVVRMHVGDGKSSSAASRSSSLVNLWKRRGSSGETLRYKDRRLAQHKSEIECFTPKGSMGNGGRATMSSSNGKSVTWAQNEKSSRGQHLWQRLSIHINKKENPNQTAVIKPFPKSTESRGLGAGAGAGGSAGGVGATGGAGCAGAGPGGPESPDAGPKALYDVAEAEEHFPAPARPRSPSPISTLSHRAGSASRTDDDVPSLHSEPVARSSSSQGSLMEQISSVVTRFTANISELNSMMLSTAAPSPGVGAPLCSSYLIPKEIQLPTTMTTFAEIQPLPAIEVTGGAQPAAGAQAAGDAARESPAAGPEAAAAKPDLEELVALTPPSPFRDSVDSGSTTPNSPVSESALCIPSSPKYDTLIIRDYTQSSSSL

pEC50, ≥ 7.00:
Fc1ccc(-c2cnc3nc(COc4ccccn4)cn3c2)nc1 [Example 132, 6-(5-fluoro-2-pyridyl)-2-(2-pyridyloxymethyl)imidazo[1,2-a]pyrimidine]
Cc1cc(F)ccc1-c1cnc2nc(COc3ccccn3)cn2n1 [Example 188, 2-(4-fluoro-2-methyl-phenyl)-6-(2-pyridyloxymethyl)imidazo[1,2-b][1,2,4]triazine]
Cc1cc(-c2cnc3nc(COc4ccc(F)cc4)cn3c2)cnc1F [Example 91, 6-(6-fluoro-5-methyl-3-pyridyl)-2-[(4-fluorophenoxy)methyl]imidazo[1,2-a]pyrimidine]
Fc1ccc(OCc2cn3cc(-c4ccc(F)cc4Cl)cnc3n2)cc1 [Example 67, 6-(2-chloro-4-fluoro-phenyl)-2-[(4-fluorophenoxy)methyl]imidazo[1,2-a]pyrimidine]
Fc1cccc(OCc2cn3cc(-c4ccc(C(F)(F)F)nc4)cnc3n2)c1 [Example 80, 2-[(3-fluorophenoxy)methyl]-6-[6-(trifluoromethyl)-3-pyridyl)imidazo[1,2-a]pyrimidine]
Fc1ccc(-c2cnc3nc(COc4ccccc4)cn3c2)c(F)c1 [Example 3, 6-(2,4-difluorophenyl)-2-phenoxymethylimidazo[1,2-a]pyrimidine]
Cc1ccccc1-c1cnc2nc(COc3ccccc3)cn2c1 [Example 5, 6-(2-methylphenyl)-2-phenoxymethylimidazo[1,2-a]pyrimidine]
Cc1cc(F)ccc1-c1cnc2nc(COc3ccccc3)cn2c1 [Example 6, 6-(4-fluoro-2-methylphenyl)-2-phenoxymethylimidazo[1,2-a]pyrimidine]
Cc1cc(F)ccc1-c1cnc2nc(COc3cc(F)ccn3)cn2c1 [Example 116, 6-(4-fluoro-2-methyl-phenyl)-2-[(4-fluoro-2-pyridyl)oxymethyl)imidazo[1,2-a]pyrimidine]
Cc1cc(F)ccc1-c1cnc2nc(COc3ccnc(F)c3)cn2c1 [Example 162, 6-(4-fluoro-2-methylphenyl)-2-(2-fluoropyridin-4-yloxymethyl)imidazo[1,2-a]pyrimidine]
Cc1ccccc1-c1cnc2nc(COc3ccnc(F)c3)cn2c1 [Example 168, 6-(2-methylphenyl)-2-(2-fluoropyridin-4-yloxymethyl)imidazo[1,2-a]pyrimidine]
FCc1cc(F)ccc1-c1cnc2nc(COc3ccccn3)cn2c1 [Example 198, 6-[4-fluoro-2-(fluoromethyl)phenyl]-2-(2-pyridyloxymethyl)imidazo[1,2-a]pyrimidine]
OCc1cc(F)ccc1-c1cnc2nc(COc3ccccc3)cn2c1 [Example 25, 6-(4-fluoro-2-hydroxymethylphenyl)-2-phenoxymethylimidazo[1,2-a]pyrimidine]
